# Laboratory results: patent publication US20240008971A1, “Ophthalmic Implant” (Nacuity Pharmaceuticals, Inc., priority 2022, published 2024)
# Entries after “also recorded” stand apart in the source; their conditions may differ.
# Tests used:
# [1] = system: isolated rat lens; assay: Effect of NACA or diNACA alone on rat lens transparency; format: cell-based, Wistar rats; conditions: 10 mM, no oxidative agent
# Description: (§1) Lenses were extracted from 3-week-old male or female Wistar rats using an existing Animal Ethics Approval for tissue collection. Rats were euthanized using CO2, eyes were enucleated and lenses dissected from the globe and incubated in either Dulbecco's modified eagle's medium (low glucose; DMEM; Savion et al., 2019) or Media 199, no phenol red with Glutamine, with 1% penicillin, streptomycin, neomycin mixture for 6 hours, under normoxic conditions with 5% CO2. At the end of the 6-hour incubation, lenses were imaged under darkfield and brightfield microscopy and only clear, transparent lenses were used for further experimentation.
# (§2) Control group: Lenses were incubated for a further 18 hours at which time, darkfield and brightfield images were taken. Lenses were placed in fresh media and then incubated for another 24 hours in DMEM or M199 with 1% PSN. Images were then taken to assess lens transparency.
# (§3) 10 mM diNACA pre-treatment group: After the initial 6-hour incubation, clear lenses were cultured in 10 mM diNACA (NPI-002) for 18 hours. Images were taken, and then lenses were placed in fresh media containing 1 μg/mL of glucose oxidase (GO). Lenses were then incubated for a further 24 hours, after which images were taken to assess lens transparency
# (§4) 10 mM NACA pre-treatment group: After the initial 6-hour incubation, clear lenses were cultured in 10 mM NACA (NPI-001) for 18 hours. Images were taken, and then lenses placed in fresh media containing 1 μg/mL of GO. Lenses were then incubated for a further 24 hours, after which images were taken to assess lens transparency
# [2] = system: GO-induced cataract in isolated rat lens; assay: GO-induced cataract in isolated rat lens; format: cell-based, Wistar rats; conditions: for lens opacities after GO-cataract induction: 10 mM pre-treatment 18 hours, then 1 μg/mL GO 24 hours, vs GO-cataract induction alone; for visibility of underlying grid after GO-cataract induction: 10 mM pre-treatment, then GO, vs GO group
# Description: as §1, §2, §3, §4
# Method: Isolated rat lenses were pre-treated with NACA or diNACA followed by GO.
# [3] = system: H2O2-induced cataract in isolated porcine lens; assay: H2O2-induced cataract in isolated porcine lens; format: cell-based, pigs; conditions: for H2O2-induced cataract: 24 hours pre-incubation, then H2O2 plus GO 6 hours
# Description: Method: Lenses were harvested from fresh eyes from pigs. These lenses were first incubated in 4-5 mL TC-199 medium and 1% pig serum in a 12-well plate for two hours. At the end of the incubation, lenses were imaged under darkfield microscopy and only clear, transparent lenses were used for further experimentation. Lens were pre-incubated with NAC, NACA, diNACA for 24 hours. After the pretreatment, the lenses were transferred to media containing hydrogen peroxide (H2O2) plus GO for maintaining a constant H2O2 level during incubation similarly to a published method (Wang et al., 1997). At the end of the 6-hour incubation, lenses were imaged under darkfield microscopy (FIG. 3).
# [4] = system: rd10 mice; conditions: cited from earlier work
# [5] = oral dose of 600 mg in humans; cited from earlier work
# [6] = system: retinas of diabetic rats; conditions: cited from earlier work
# [7] = target: glutamate cysteine ligase (GCL, EC 6.3.2.2); conditions: read-out: Ki (nonallosteric competitive inhibition of GCL); cited from earlier work
# [8] = system: rabbit; assay: NPI-002 IVT implant single dose 3-week safety study in rabbit; format: in vivo, New Zealand White rabbits; conditions: resolved by Day 23, associated with 22-gauge needle injection procedure
# Description: A study was conducted to evaluate intravitreal injection of di-NACA as suspension or implant and NACA solution in rabbit. The objectives were to assess safety and whether the implant could deliver diNACA, NACA, and NAC to ocular tissues. A sterile intravitreal implant containing diNACA was prepared (Formulation 1896-08, a fast-releasing implant; FIG. 7). Female New Zealand White rabbits were administered two NPI-002 IVT implants per eye (total dose of NPI-002, 0.8 mg/eye). One group of animals received IVT placebo implants without any test article.
# Prior to placement on study, an ophthalmic examination was conducted on each rabbit including slit-lamp biomicroscopy and indirect ophthalmoscopy. Ocular findings were scored according to a modified McDonald-Shadduck Scoring.
# Clinical ophthalmic examinations were performed at baseline and on Days 8 and 23 post-dose. General health observations were performed daily. Body weights were recorded at baseline and prior to termination.
# Sterile NPI-002 or placebo IVT implants were provided pre-loaded in 22 G beveled needle with wire plunger (1 implant/needle) and injected into VH. NPI-002 suspension and NPI-001 solution were prepared in sterile phosphate buffer and injected into VH.
# Animals were euthanized on Day 8, 15, or 23, and ocular tissue was collected and […]
# [9] = Repeated dose topical ocular administration in rabbit: NACA in aqueous humor (LC-MS); format: in vivo, Dutch Belted rabbits
# Description: A study was conducted to evaluate effects of diNACA or NACA topical ocular dosing in rabbit. Ophthalmic formulations were developed containing either 1% diNACA or 1% NACA that were used for repeated topical ocular instillation to Dutch Belted rabbits. Three animals per group were dosed four times a day at approximately 8:00 AM, 11:00 AM, 2:00 PM, and 4:00 PM on Days 1-6, and once on Day 7 at approximately 8:00 AM, via bilateral topical administration with each test article. Ocular tolerability was assessed at baseline and prior to the first daily dose by means of scoring chemosis, discharge, and hyperemia (Draize scoring). Ocular tissue was harvested at necropsy (Day 7). A qualified analytical LC-MS method was developed and used to quantitate NACA levels in aqueous humor (AH).
compound,measurement,setting,value
N-acetylcysteine amide [NACA],lens transparency after compound alone,[1],developed a subtle thin rim opacity on the edge; also recorded: slight ring opacity developed
same,lens opacities after GO-cataract induction,[2],reduced opacities compared to cataract induction alone
same,visibility of underlying grid after GO-cataract induction,[2],more clearly visible
same,H2O2-induced cataract,[3],dose-dependently prevented H2O2-induced cataract
same,visual parameters,[4]; mouse model of RP,"improve, to a greater extent than NAC, visual parameters"
same,preservation of cone function and survival compared to NAC,"[4]; rd10 mice, 7-fold lower dose than NAC",greater preservation of cone function and survival
"CC(=O)N[C@@H](CS)C(=O)O [NAC, N-acetylcysteine]",H2O2-induced cataract,[3],dose-dependently prevented H2O2-induced cataract
same,time after administration at which no NAC is detectable,[5],10 to 12 h
same,retinal pathological changes (retinopathy),[6]; 3 and 5 months,alleviated the pathological changes
same,reactive oxygen species contents in the retinas,[6]; most significantly at 5 months,decreased reactive oxygen species
same,VEGF and ICAM-1 expression in retinal blood vessels,[6]; returned to basal levels after 5-month treatment,up-regulation was attenuated
same,"oxidative damage, cone survival and function","[4]; rd10 mice, NAC in drinking water, vs untreated","dose-dependent, statistically significant reduction in oxidative damage and improvements in cone survival and function"
"N[C@@H](CCC(=O)N[C@@H](CS)C(=O)NCC(=O)O)C(=O)O [GSH, c-L-glutamyl-L-cysteinyl-glycine]",Ki,[7],2300 µM
"CC(=O)N[C@@H](CSSC[C@H](NC(C)=O)C(N)=O)C(N)=O [diNACA, (2R,2R′)-3,3′-disulfanediyl bis(2-acetamidopropanamide)]",lens transparency after compound alone,[1],remained absolutely clear and transparent; also recorded: tolerated exposure to diNACA better than NACA
same,lens transparency after compound alone,[1]; listed as NPI-002,maintained lens transparency slightly better than NPI-001 (NACA) alone
same,lens opacities after GO-cataract induction,[2],reduced lens opacities
same,lens opacities after GO-cataract induction,[2]; listed as NPI-002,prevented oxidative-induced cataract
same,visibility of underlying grid after GO-cataract induction,[2],improved grid visibility
same,H2O2-induced cataract,[3],dose-dependently prevented H2O2-induced cataract
same,H2O2-induced cataract,[3]; listed as NPI-002,prevented oxidative-induced cataract
same,"protective effects on the lens as compared with NAC, NACA",[3]; H2O2-induced cataract,better protective effects on the lens
same,clinical ophthalmic examination findings on Day 8,[8],"Mild to moderate conjunctival congestion, swelling and discharge"
same,ocular penetration following topical ocular dosing,[9],penetrates the eye
